SMILES strings stand for the structures. Read-outs that look alike come from different tables or passages of the source.

Data on three molecules can be found in patent publication US9011912B2, “Extended-release oral dosage forms for poorly soluble amine drugs” (Abon Pharmaceuticals, LLC, priority 2010, dated 2015).

For data set [1] the following is noted: amine drug, cited from earlier work.
A short description of data set [2]: Solubility test of paliperidone with ionizable compound (citric acid) and amphiphilic compound (SoluPlus). It is filed as physicochemical. The note with it: for solubility: room temperature. How it is done: A solubility test was performed to quantify the synergistic effects provided by the combination of an ionizable polymer and an amphiphilic compound. In this Example the ionizable compound was citric acid and the amphiphilic compound was SoluPlus®.

In the case of `Cc1cc2c(s1)Nc1ccccc1N=C2N1CCN(C)CC1` [Olanzapine], the pKa (as a rule, the pH at which an ionisable group is half protonated) in data set [1] (first pKa value) is on record as 5; in data set [1] (second pKa value), 7.4.

Turning to `Cc1nc2n(c(=O)c1CCN1CCC(c3noc4cc(F)ccc34)CC1)CCCC2O` (stereo not drawn) [Paliperidone], the “solubility higher in solution containing ionizable compound and amphiphilic polymer compared to ionizable compound without amphiphilic polymer” value in data set [2] (10% Soluplus + 10% citric acid vs 10% citric acid alone) turned out to be 34.3%. In addition, the solubility (usually how much of the substance goes into solution per volume) in data set [2] (aqueous buffer, in 10% Citric Acid Aqueous Solution) was determined as 241 mg/mL; in data set [2] (aqueous with cosolvent or surfactant or cyclodextrin, in 10% Soluplus Aqueous Solution) it was 0.6 mg/mL; in data set [2] (aqueous with cosolvent or surfactant or cyclodextrin, in 10% Soluplus and 10% Citric Acid Aqueous Solution), 324 mg/mL. For the same molecule, the pKa is recorded as 8.2 in data set [1] (first pKa value) and 8.6 in data set [1] (second pKa value).

Turning to `CCOc1ccccc1OCCN[C@H](C)Cc1ccc(OC)c(S(N)(=O)=O)c1` [Tamsulosin], the pKa in data set [1] (second pKa value) is 10.23.
